Patent US7906551B2 (Rottapharm S.p.A., priority 2006, dated 2011)
Like-named read-outs stand apart in the source and are kept apart here. Each block holds one compound with its values, some of them ahead of it.

Legend:
[1] = molecular target: T1, COX-2 (Mus musculus, UniProt Q05769); assay: Assessment of COX-2 activity in LPS-stimulated J774 cells (PGE2 radioimmunoassay); assay type: cell-based, murine
T1 construct: lipopolysaccharide (LPS, 10 μg/mL) to induce COX-2; endogenous in cells; host or cells: J774 murine monocyte/macrophage cell line, LPS-stimulated
T1 sequence (Q05769 18-604): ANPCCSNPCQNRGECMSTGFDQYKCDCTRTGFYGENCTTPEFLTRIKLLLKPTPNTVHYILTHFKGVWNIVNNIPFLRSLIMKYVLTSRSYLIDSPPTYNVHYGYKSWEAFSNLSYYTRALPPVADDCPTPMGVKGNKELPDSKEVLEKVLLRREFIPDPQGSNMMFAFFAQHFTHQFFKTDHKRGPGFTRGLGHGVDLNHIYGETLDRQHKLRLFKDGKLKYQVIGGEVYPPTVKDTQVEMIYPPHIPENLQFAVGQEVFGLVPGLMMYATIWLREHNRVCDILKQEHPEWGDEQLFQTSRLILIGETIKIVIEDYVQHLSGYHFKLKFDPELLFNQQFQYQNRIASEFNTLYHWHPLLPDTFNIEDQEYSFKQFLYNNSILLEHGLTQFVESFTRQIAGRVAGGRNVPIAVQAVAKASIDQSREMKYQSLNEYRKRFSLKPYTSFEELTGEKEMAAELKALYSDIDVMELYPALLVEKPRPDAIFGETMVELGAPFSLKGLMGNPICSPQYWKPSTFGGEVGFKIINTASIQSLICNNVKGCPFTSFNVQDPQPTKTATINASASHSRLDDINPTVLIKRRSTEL
Description: Cells were stimulated for 24 h with E. coli lipopolysaccharide (LPS, 10 μg/mL) to induce COX-2, in the absence or presence of test compounds, at the concentrations previously reported. The supernatants were collected for the measurement of PGE2 by radioimmunoassay.
(§1) Analysis. Throughout the time the experiments lasted, triplicate wells were used for the various conditions of treatment. Results are expressed as the mean, for 3 experiments, of the % inhibition of PGE2 production by test compounds with respect to control samples. Data fit was obtained using the sigmoidal dose-response equation (variable slope). The IC50 were calculated by GraphPad Instat program (GraphPad software).

[2] = test system: rat model of hyperalgesia induced by carragenine; assay: Paw pressure test, hyperalgesia induced by carragenine; assay type: in vivo; details: 20 mg/Kg
Description: (§2) Male Swiss albino mice (23-25 g) and Sprague Dawley or Wistar rats (150-200 g) were used. The animals were fed a standard laboratory diet and tap water ad libitum and kept at 23±1° C. with a 12 h light/dark cycle, light on at 7 a.m.
The nociceptive threshold in the rat was determined with an analgesimeter, according to the method described by Leighton et al, G. E.; Br. J. Pharmacol. 1988, 93, 553-560. Threshold pressure was measured before and 30, 60 and 120 min after treatment. An arbitrary cut-off value of 250 g was adopted. In order to induce an inflammatory process in the rat paw carrageenan (0.1 ml, 1%) was administered i.p. 4 h before test.

[3] = test system: rat model of edema induced by carragenine; assay: Carrageenan-induced paw edema; assay type: in vivo; details: 1 h, 20 mg/Kg, read-out: Edema inhibition 60 min, MPE
Description: as §2
Rats paw volumes were measured using a plethysmometer. Rats received the investigated compounds 4 hours after a 0.1-ml injection of 1.0% carrageenan in the right hind paw. Five hours after the injection of carrageenan (i.e. 1 hour after the administration of the investigated compound), the paw volume of the right hind paw was measured and compared with saline/carrageenan-treated controls. Results are reported as maximum percent effect (MPE), see below for detailed explanation.

[4] = molecular target: T2, COX-1 (Mus musculus, UniProt P22437); details: Table 1, reported by reference; cited from earlier work
T2 construct: endogenous in cells; host or cells: J774 murine monocyte/macrophage cell line
T2 sequence (P22437 27-602): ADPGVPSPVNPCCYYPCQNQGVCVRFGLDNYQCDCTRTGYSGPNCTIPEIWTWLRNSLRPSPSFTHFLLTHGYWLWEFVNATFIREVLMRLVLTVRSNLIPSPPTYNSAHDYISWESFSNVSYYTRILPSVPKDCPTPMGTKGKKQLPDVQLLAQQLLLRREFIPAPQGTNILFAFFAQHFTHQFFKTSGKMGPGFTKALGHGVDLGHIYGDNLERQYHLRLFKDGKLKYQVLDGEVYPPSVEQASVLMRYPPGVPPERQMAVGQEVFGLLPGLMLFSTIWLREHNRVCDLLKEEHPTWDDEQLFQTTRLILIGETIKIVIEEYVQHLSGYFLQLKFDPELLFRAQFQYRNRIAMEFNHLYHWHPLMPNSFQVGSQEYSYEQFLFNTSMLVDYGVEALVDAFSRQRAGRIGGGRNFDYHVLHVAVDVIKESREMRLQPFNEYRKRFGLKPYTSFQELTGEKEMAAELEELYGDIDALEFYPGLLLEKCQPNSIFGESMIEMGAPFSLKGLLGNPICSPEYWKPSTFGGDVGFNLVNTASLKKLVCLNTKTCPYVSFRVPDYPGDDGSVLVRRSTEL

[5] = molecular target: T1, COX-2; details: Table 1, reported by reference; cited from earlier work
[6] = molecular target: T2, COX-1; assay: Assessment of COX-1 activity in J774 cells (arachidonic acid, PGE2 radioimmunoassay); assay type: cell-based, murine
Description: Stock solutions of the reference standard or of the test compounds were prepared in dimethyl sulphoxide, and an equivalent amount of dimethyl sulphoxide was included in control samples. At the end of the incubation the supernatants were collected for the measurement of PGE2 by radioimmunoassay.
as §1

[7] = Table 8, Formula I-c, read-out: COX-2 IC50
[8] = 0.5 h, Table 10, 30 min, read-out: Analgesia 30 min MPE
[9] = 1 h, Table 10, 60 min, read-out: Analgesia 60 min MPE

- melting point: 145 °C
SMILES: CCOC(=O)C(O)c1cc(-c2ccc(S(C)(=O)=O)cc2)n(-c2ccccc2)c1C (racemic) [Example 7, Ethyl[2-hydroxy-2-[2-methyl-5-(4-methylsulphonyl)phenyl-1-phenyl-1H-pyrrol-3-yl]]acetate]

- melting point: 130 °C
SMILES: CCOC(=O)C(O)c1cc(-c2ccc(S(C)(=O)=O)cc2)n(-c2ccc(OC)cc2)c1C (racemic) [Example 8, Ethyl[2-hydroxy-2-[1-(4-methoxy)phenyl-2-methyl-5-(4-methylsulphonyl)phenyl-1H-pyrrol-3-yl]]acetate]

- COX-1/COX-2 Selectivity Index (IC50 ratio) ([1]; Table 6, Formula Ib): >310
- IC50 ([1]; Table 6, Formula Ib, read-out: COX-2 IC50): 0.32 µM
SMILES: CCOC(=O)C(O)c1cc(-c2ccc(S(C)(=O)=O)cc2)n(-c2cccc(F)c2)c1C (racemic) [Example 9, Ethyl[2-hydroxy-2-[1-(3-fluoro)phenyl-2-methyl-5-(4-methylsulphonyl)phenyl-1H-pyrrol-3-yl]]acetate]
- inhibition in vivo at 20 mg/kg ([2]; 0.5 h, Table 7, 30 min, read-out: Analgesia 30 min MPE): 80%
- inhibition in vivo at 20 mg/kg ([2]; 1 h, Table 7, 60 min, read-out: Analgesia 60 min MPE): 40%
- inhibition in vivo at 20 mg/kg ([3]; Table 7, 60 min): 40%

SMILES: Cc1c(CC(=O)O)cc(-c2ccc(S(C)(=O)=O)cc2)n1-c1ccccc1 [Compound 1a, 2-[2-methyl-5-(4-methylsulphonyl)phenyl-1-phenyl-1H-pyrrol-3-yl]acetic acid]
- IC50 [4]: > 100 µM
- COX-1/COX-2 Selectivity Index (IC50 ratio) [5]: >100

SMILES: Cc1ccc(-n2c(-c3ccc(S(C)(=O)=O)cc3)cc(CC(=O)O)c2C)cc1 [Compound 2a, 2-[1-(4-methyl)phenyl-2-methyl-5-(4-methylsulphonyl)phenyl-1H-pyrrol-3-yl]acetic acid]
- IC50 [4]: > 100 µM
- COX-1/COX-2 Selectivity Index (IC50 ratio) [5]: >200

SMILES: CCOC(=O)Cc1cc(-c2ccc(S(C)(=O)=O)cc2)n(-c2ccc(C)cc2)c1C [Compound 2b, Ethyl 2-[1-(4-methyl)phenyl-2-methyl-5-(4-methylsulphonyl)phenyl-1H-pyrrol-3-yl]acetate]
- IC50 [4]: > 100 µM
- COX-1/COX-2 Selectivity Index (IC50 ratio) [5]: >200

SMILES: Cc1c(CC(=O)O)cc(-c2ccc(S(C)(=O)=O)cc2)n1-c1ccc(C(F)(F)F)cc1 [Compound 3a]
- IC50 [4]: > 100 µM
- COX-1/COX-2 Selectivity Index (IC50 ratio) [5]: >900

SMILES: CCOC(=O)Cc1cc(-c2ccc(S(C)(=O)=O)cc2)n(-c2ccc(C(F)(F)F)cc2)c1C [Compound 3b, Ethyl 2-[2-methyl-5-(4-methylsulphonyl)phenyl-1-(4-trifluoromethyl)phenyl-1H-pyrrol-3-yl]acetate]
- IC50 [4]: > 100 µM
- COX-1/COX-2 Selectivity Index (IC50 ratio) [5]: >1600

- selectivity [1]: > 10000
- IC50 ([1]; read-out: in vitro COX-2 inhibitory potency IC50): 0.01 µM
SMILES: CCOC(=O)Cc1cc(-c2ccc(S(C)(=O)=O)cc2)n(-c2cccc(F)c2)c1C [Compound 4b, Ethyl 2-[1-(3-fluoro)phenyl-2-methyl-5-(4-methylsulphonyl)phenyl-1H-pyrrol-3-yl]acetate, reference compound]
- inhibition in vivo at 20 mg/kg ([2]; 0.5 h, 30 min, read-out: Analgesia 30 min MPE): 28%
- inhibition in vivo at 20 mg/kg ([2]; 1 h, 60 min, read-out: Analgesia 60 min MPE): 40%
- inhibition in vivo at 20 mg/kg ([3]; 60 min): 30%

- COX-1/COX-2 Selectivity Index (IC50 ratio) ([1]; Table 2, Formula Ia): >7100
- melting point: 124 °C
SMILES: CCCCOC(=O)Cc1cc(-c2ccc(S(C)(=O)=O)cc2)n(-c2ccccc2)c1C [Example 6, n-Butyl[1-phenyl-2-methyl-5-(4-methylsulphonyl)phenyl-1H-pyrrol-3-yl]acetate]

- IC50 ([6]; Table 8, Formula I-c): > 100 µM
- IC50 [1, 7]: 1 µM
- melting point: 178 to 181 °C
SMILES: CNC(=O)Cc1cc(-c2ccc(S(C)(=O)=O)cc2)n(-c2ccccc2)c1C [Example 13, N-Methyl-[2-methyl-5-(4-methylsulphonyl)phenyl-1-phenyl-1H-pyrrol-3-yl]acetamide]

- IC50 ([6]; Table 8, Formula I-c): > 100 µM
- IC50 [1, 7]: 0.58 µM
- melting point: 175 to 179 °C
SMILES: Cc1c(CC(=O)N(C)C)cc(-c2ccc(S(C)(=O)=O)cc2)n1-c1ccccc1 [Example 15, N,N-Dimethyl-[2-methyl-5-(4-methylsulphonyl)phenyl-1-phenyl-1H-pyrrol-3-yl]acetamide]

SMILES: CCOCCc1cc(-c2ccc(S(C)(=O)=O)cc2)n(-c2ccccc2)c1C [Example 21, [3-(2-Ethoxyethyl)-2-methyl-5-(4-methylsulphonyl)phenyl-1-phenyl]-1H-pyrrole]
- inhibition in vivo at 20 mg/kg [2, 8]: 96%
- inhibition in vivo at 20 mg/kg [2, 9]: 72%
- inhibition in vivo at 20 mg/kg ([3]; Table 10, 60 min): 45%

SMILES: CCCOCCc1cc(-c2ccc(S(C)(=O)=O)cc2)n(-c2ccccc2)c1C [Example 22, [2-Methyl-5-(4-methylsulphonyl)phenyl-1-phenyl-3-(2-n-propyloxyethyl)]-1H-pyrrole]
- inhibition in vivo at 20 mg/kg [2, 8]: 88%
- inhibition in vivo at 20 mg/kg [2, 9]: 94%
- inhibition in vivo at 20 mg/kg ([3]; Table 10, 60 min): 43%

SMILES: CCCOCCc1cc(-c2ccc(S(C)(=O)=O)cc2)n(-c2ccc(F)cc2)c1C [Example 25, [1-(4-Fluoro)phenyl-2-methyl-5-(4-methylsulphonyl)phenyl-3-(2-n-propyloxyethyl)]-1H-pyrrole]
- inhibition in vivo at 20 mg/kg [2, 8]: 53%
- inhibition in vivo at 20 mg/kg [2, 9]: 70%
- inhibition in vivo at 20 mg/kg ([3]; Table 10, 60 min): 41%

- IC50 ([6]; Table 11, Formula I-e): > 100 µM
- COX-2 % of inhibition at 1.10^−5 M [1]: 69%
SMILES: Cc1c(CCOC(=O)c2ccc(F)cc2)cc(-c2ccc(S(C)(=O)=O)cc2)n1-c1ccc(F)cc1 [Example 33, 2-(1-(4-fluorophenyl)-2-methyl-5-(4-methylsulphonyl)phenyl-1H-pyrrol-3-yl)ethyl 4-fluorobenzoate]

- IC50 ([6]; Table 11, Formula I-e): > 100 µM
- COX-2 % of inhibition at 1.10^−5 M [1]: 69%
SMILES: Cc1c(CCOC(=O)c2cccs2)cc(-c2ccc(S(C)(=O)=O)cc2)n1-c1ccc(F)cc1 [Example 34, 2-(1-(4-fluorophenyl)-2-methyl-5-(4-methylsulphonyl)phenyl-1H-pyrrol-3-yl)ethyl 2-tiophencarboxylate]

- melting point: 157 to 160 °C
SMILES: CCCNC(=O)NCCc1cc(-c2ccc(S(C)(=O)=O)cc2)n(-c2ccccc2)c1C [Example 39, N-[2-(2-Methyl-5-(4-(methylsulphonyl)phenyl)-1-phenyl-1H-pyrrol-3-yl)ethyl]-3-propyl urea]
